# Data as given in US20070190628A1, “Yeast food composition for fuel ethanol production” (priority 2006, published 2007).
# Assays:
# [1] = test system: active dry yeast “z”; test: Individual nutritive elements added to normal gravity corn mash: fermentation rate and viable cell numbers; format: cell-based, Saccharomyces cerevisiae
# Protocol: Normal gravity corn mash was prepared using ground #2 yellow dent corn obtained from Commercial Alcohols Inc. (275 Bloomfield Road, Chatham, Ontario, Canada N7M 5J5). […] One part by weight of ground corn was dispersed into three parts of 50° C., sterile dH2O containing 1 mM CaCl2.2H2O. To minimize the development of excessive viscosity during gelatinization, 1.25 mL of high temperature (HT-2X) α-amylase such as was supplied by Alltech Inc. in Nicholasville, Ky., USA (HT-2X α-amylase is no longer available from Alltech), was added per litre of mash as the ground corn was dispersed. It should be noted that if Ca-independent alpha amylases are used such as Termamyl® SC supplied by Novozymes North America in Franklinton, N.C., USA, then the 1 mM CaCl2.2H2O is not required. Following the addition of the ground corn and a five-minute mixing period to produce a homogenous mixture, the temperature was increased until the mash reached 94° C. where it was held at this temperature for 60 min with continued stirring. The temperature of the gelatinized starch was then reduced to 80° C. and liquefied by a second dose of HT-2X αx-amylase (1.25 mL/L) with continued stirring for 30 min. Sterile Celstir® (Wheaton Scientific, Millville, N.J.) fermentor vessels were filled with 1 L aliquots of this mash. To each fermentor vessel, filter-sterilized (25 mm, 0.2 μm Acrodisc® syringe filter, Pall Corporation, Ann Arbor, Mich.) urea (Fisher Scientific, Co., NJ), was added to achieve a final concentration of 8 mM. Cold-sterilization of the mash was assured by the addition of 100 μL of diethyl pyrocarbonate (DEPC, Sigma Chemical Co.) per litre of mash mixing the mash mechanically (IKA-Labortechnik, Staufen, Germany) for 5-10 min followed by cooling the fermentor vessels at 4° C. cold room for ˜72 hrs. The fermentor vessels were then removed from the cold room, connected to 30° C. water bath circulators and mixed. Glucoamylase in the form of Allcholase II 400 supplied by Alltech Inc. was then added (1.5 mL/L mash) 30 min prior to yeast inoculation to initiate saccharification of the dextrins formed during gelatinization and liquefaction (it should be noted that Allcholase II 400 is no longer available and any glucoamylase may be used). The mash thus prepared contained 19-20 g of dissolved solids/100 mL of mash as determined by a digital density meter analyzer (model DMA-45, Anton Paar KG, Graz, Austria) maintained at 20° C.
# Eleven grams of a commercially available active dry yeast, designated as “z”, were rehydrated by dispersal in 99 mL of preheated 38° C., 0.1% (w/v) sterile water and incubation for 20 min with periodic shaking in a 38° C. water bath. Fermentor vessels containing normal density corn mash were prepared as described above and inoculated with sufficient active yeast to provide an initial viable cell count of 1×10^7 cells per mL mash. The optimal fermentation temperature for the active dry yeast “z” was determined by conducting fermentations at 30°, 34°, 36°, 38°, and 40° C.
# The effects of individual elements on yeast cell biomass production and fermentation in a fermentation feedstock were assessed by separately supplementing of corn mash with nitrogen, phosphorus, magnesium, sulphur and zinc. Nitrogen effects were assessed in corn mashes by the additions of urea to provide final concentrations in the mash of […]. Phosphorus effects were assessed in corn mashes amended with 16 mM urea, by the additions of (NH4)2HPO4 (BDH Chemicals Inc, Toronto, Ont., MW: 132.06) to provide final concentrations of 0, 0.1, 0.2, 0.4, 0.6, and 0.8 g of (NH4)2HPO4/L of mash. Magnesium effects were assessed in corn mashes amended with 16 mM urea, by the additions of MgSO4.7H2O (BDH Chemicals Inc., MW. 246.48) to provide final concentrations of 0, 0.025, 0.049, 0.074, 0.099, 0.148, 0.197 g of MgSO4.7H2O/L of mash. […]
# [2] = test system: active dry yeast “z”; test: EVOP optimization of phosphorus and sulfur concentrations for fermentation rate in corn mash; format: cell-based, Saccharomyces cerevisiae; conditions: combined with 16 mM urea, 0.049 g/L MgSO4.7H2O and 0.273 mg/L ZnSO4.7H2O
# Protocol: The Evolution Operation Method (EVOP) described by Box et al, (1969, Evolutionary Operation: A Statistical Method for Process Improvement, John Wiley & Sons, NY, N.Y.) was used to optimize the concentrations of phosphorus and sulfur combined with urea, magnesium and zinc for increasing fermentation rates in corn mash.
# Multiple sterile 2-L Celstir® fermentors were each filled with 1 L of corn mash supplemented with 16 mM urea, 0.049 g/L MgSO4.7H2O, and 0.273 mg/L ZnSO4.7H2O. The active dry yeast “z” was used as the inoculum in this study. The EVOP testing was conducted by using the “low” concentration values of phosphorus and sulfur (0.8 g/L (NH4)2HPO4 and 0.16 g/L (NH4)2SO4) from Table 1 as the center points for assessing 4 additional phosphorus and sulphur concentrations around these points for their effects on fermentation rates. If the response of a particular point around the center point was significant, then this particular point became the new center point and 4 new concentration values would be examined as described by Box et al (1969). […] Fermentation rates were determined by repeated sampling and sample processing at specific time intervals as described in Example 1.
# [3] = (NH4)2HPO4 above 0.4 g/L, mash with 16 mM urea
# [4] = ZnSO4.7H2O 0.287 mg/L to 2.30 mg/L (1 to 8 μM), mash with 16 mM urea
compound,measurement,setting,value
N.N.O=P(O)(O)O [(NH4)2HPO4],effect on rates of dissolved solids utilization,"[1]; 0.1 g/L to 0.4 g/L (NH4)2HPO4, mash with 16 mM urea",significantly increased
same,effect on cell yields,[1]; [3],decreased cell yields
same,effect on fermentation rates,[1]; [3],decreased fermentation rates
same,optimal concentration for supplementing corn mash,[2],1.6 g/L
N.N.O=S(=O)(O)O [(NH4)2SO4],effect on the rate of fermentation,"[1]; (NH4)2SO4 above 0.04 g/L, mash with 16 mM urea",did not further benefit
same,yeast cell yields,"[1]; (NH4)2SO4 above 0.04 g/L, mash with 16 mM urea, increased from 3.3×10^8/mL",4e+08 mL⁻¹
same,optimal concentration for supplementing corn mash,[2],0.32 g/L
O.O.O.O.O.O.O.O=S(=O)([O-])[O-].[Mg+2] [MgSO4.7H2O],effect on fermentation rate,"[1]; MgSO4.7H2O exceeding 0.074 g/L (0.3 mM Mg2+), mash with 16 mM urea",decreased fermentation rate
O.O.O.O.O.O.O.O=S(=O)([O-])[O-].[Zn+2] [ZnSO4.7H2O],effect on fermentation rates,[1]; [4],negative effects
same,effect on numbers of yeast cells produced,[1]; [4],negative effects
